Laboratory results reported in patent US20250059191A1, “CRYSTALLINE FORMS OF DIAZABICYCLOOCTANE DERIVATIVE AND PRODUCTION PROCESS THEREOF” (MEIJI SEIKA PHARMA CO., LTD., priority 2013, published 2025).

Columns and labels:
Format in all cases: physicochemical
[1] = Stability test of amorphous form and crystalline forms I-IV, 40° C./75% RH, airtight container
Procedure: Crystalline form III of Example 7a were dissolved in water and subjected to lyophilisation to afford (2S,5R)-N-(2-aminoethoxy)-7-oxo-6-(sulfooxy)-1,6-diazabicyclo[3.2.1]octane-2-carboxamide (VII-1) in an amorphous form. The compounds in an amorphous form and crystalline forms I-IV of Examples 5-8 were each weighed in a screw bottle, and stability tests were conducted at each of the temperatures and humidity conditions. The methods of measurement of related substances, content measurement, and water content measurement were as follows.
(§1) Samples were dissolved in water, and these solutions were used as sample solutions. The sample solutions each in the amount of 5 μL were tested under the following conditions by JP16, Liquid Chromatography <2.01>to obtain the amount of each related substance (%) and the total amount of related substances (%), and the content.
(§2) • Column: Waters Atlantis dc18, 5 μm, 4.6×250 mm • Column temperature: a constant temperature of about 35° C. • Injected amount: 5 μL • Detector: an ultraviolet absorption photometer (wavelength: 210 nm) • Mobile phase A: 1.32 g of diammonium hydrogenphosphate was dissolved in 900 mL of water, and phosphoric acid was added to adjust the pH to 3.0. To this was then added water to make 1000 mL. • Mobile phase B: Acetonitrile for liquid chromatography • Gradient program: The mixing ratio of mobile phase A to mobile phase B was controlled as the following time program.
(§3) About 20 mg of the product was precisely measured and tested by JP16, Water Determination <2.48>Coulometric titration.

[2] = Stability of crystalline form III in a packaging container; conditions: polyethylene bag/aluminium laminated bag
Procedure: as §1, §2, §3
Crystalline form III was packaged under the following conditions and stability tests were conducted at each of the temperatures and humidity conditions under analysis conditions of Example 9a. The results are shown in Tables 10-12. • Packaging container • Inner bag: a low-density polyethylene·nylon tie band • Outer bag: an aluminium laminated bag·heat sealed

[3] = Solubility in aqueous isopropanol solution
Text: Crystalline forms I, II and III are distinguished by DSC, solubility in aqueous isopropanol, and lattice spacing in powder X-ray diffraction patterns. […]

[4] = Experiment on crystal transformation (powder X-ray diffraction after stirring suspension or storage)
Procedure: (§4) Crystal transformation in the polymorphism of the compound represented by Formula (VII-1) obtained in the present invention are not observed in a stability test carried out at 40° C. in the solid state or in stirring the suspension in a hydrous solvent for a long time. When crystalline form III of the compound represented by Formula (VII-1) was subjected to an XRD-DSC experiment, heated to 160° C. at 60% RH, and then allowed to cool on standing to 63° C., the crystalline form changed to anhydrous crystalline form over about 145° C., and then returned to the crystalline form III below about 90° C. after cooling. On the basis of these findings, a crystalline form of a compound represented by Formula (VII-1), particularly the crystalline form III constitutes a stable form under ordinary conditions.
A small amount of a suspension of the crystals of Example 6a was taken and stirred at room temperature for one day. The precipitated crystals were collected and subjected to powder X-ray crystal diffraction.
In the step of Example 7a, a small amount was taken out of the suspension immediately after the seeding and of the suspension after the dropwise addition of isopropanol, and each of the taken-out portions was stirred with a stirring bar at room temperature for one day and four days. The precipitated crystals were collected and subjected to powder X-ray crystals diffraction.
Crystalline form IV of Examples 8a-c was taken and isopropanol/water (6/1) was added thereto and suspended and stirred at 25° C. or 40° C. for one week. Samples were taken after 12 hours, 24 hours (one day), 48 hours (two days), 72 hours (three days), 96 hours (four days) and 168 hours (one week), and subjected to powder X-ray crystal diffraction after through-flow drying.

[5] = XRD-DSC experiment on crystalline form III (crystal transformation by heating)
Procedure: as §4
Crystal transformation by heating in polymorphism of crystalline form III of Example 7a was examined using XRD-DSC. Heating and cooling conditions were as follows: the temperature was elevated at a rate of 2° C./min from room temperature to 160° C. and then cooled to 63° C. under a constant relative humidity (RH) of 60%. DSC and XRD of the samples were successively measured. […]

[6] = 60° C., 4 weeks (text: 1 month)

For `NCCONC(=O)[C@@H]1CC[C@@H]2CN1C(=O)N2OS(=O)(=O)O` [Crystalline form III, (2S,5R)-N-(2-aminoethoxy)-7-oxo-6-(sulfooxy)-1,6-diazabicyclo[3.2.1]octane-2-carboxamide], the Content ([1]; 1 month) was 100.0%, the “Total amount of related substances” value ([1]; 1 month) was 0.0% and the Water content ([1]; 1 month) was 5.3%. The Content ([1]; 1 month, listed as Form III) was 100.0%, the “Total amount of related substances” value ([1]; 1 month, listed as Form III) was 0.0% and the Water content ([1]; 1 month, listed as Form III) was 5.3%. The Content ([1]; 3 months) was 99.9%, the “Total amount of related substances” value ([1]; 3 months) was 0.0% and the Water content ([1]; 3 months) was 5.5%. For the same compound, the Content ([1]; 3 months, listed as Form III) was 99.9%, the “Total amount of related substances” value ([1]; 3 months, listed as Form III) was 0.0% and the Water content ([1]; 3 months, listed as Form III) was 5.5%. The Content ([1]; at start) was 99.9%, the “Total amount of related substances” value ([1]; at start) was 0.0% and the Water content ([1]; at start) was 5.3%. For the same compound, the Content ([1]; at start, listed as Form III) was 99.9%, the “Total amount of related substances” value ([1]; at start, listed as Form III) was 0.0% and the Water content ([1]; at start, listed as Form III) was 5.3%. The Content ([2]; 25° C./60% RH, 3 months) was 99.9%, the “Total amount of related substances” value ([2]; 25° C./60% RH, 3 months) was 0.07% and the Water content ([2]; 25° C./60% RH, 3 months) was 5.23%. For the same compound, the Content ([2]; 25° C./60% RH, at start) was 99.9%, the “Total amount of related substances” value ([2]; 25° C./60% RH, at start) was 0.09% and the Water content ([2]; 25° C./60% RH, at start) was 5.32%. The Content ([2]; 40° C./75% RH, 1 month) was 99.9%, the “Total amount of related substances” value ([2]; 40° C./75% RH, 1 month) was 0.07% and the Water content ([2]; 40° C./75% RH, 1 month) was 5.51%. The Content ([2]; 40° C./75% RH, 2 months) was 99.9%, the “Total amount of related substances” value ([2]; 40° C./75% RH, 2 months) was 0.04% and the Water content ([2]; 40° C./75% RH, 2 months) was 5.27%. The Content ([2]; 40° C./75% RH, 3 months) was 99.9%, the “Total amount of related substances” value ([2]; 40° C./75% RH, 3 months) was 0.06% and the Water content ([2]; 40° C./75% RH, 3 months) was 5.29%. For the same compound, the Content ([2]; 40° C./75% RH, at start) was 99.9%, the “Total amount of related substances” value ([2]; 40° C./75% RH, at start) was 0.09% and the Water content ([2]; 40° C./75% RH, at start) was 5.20%. The Content ([2]; 60° C., 2 weeks) was 99.9%, the “Total amount of related substances” value ([2]; 60° C., 2 weeks) was 0.02% and the Water content ([2]; 60° C., 2 weeks) was 5.20%. The Content [2, 6] was 99.9%, the “Total amount of related substances” value [2, 6] was 0.04% and the Water content [2, 6] was 5.08%. For the same compound, the Content ([2]; 60° C., at start) was 99.9%, the “Total amount of related substances” value ([2]; 60° C., at start) was 0.09% and the Water content ([2]; 60° C., at start) was 5.20%. For the same compound, the “Solubility in an aqueous 60% isopropanol solution” value ([3]; 10° C.) was 0.76%, the “Solubility in an aqueous 60% isopropanol solution” value ([3]; 20° C.) was 0.80% and the “Crystal transformation to a different crystal form” value ([4]; suspensions after seeding and after isopropanol addition, stirred at room temperature for one day and four days) was “No crystal transformation to a different crystal form was observed”. For the same compound, the “Temperature at which it returned to the crystalline form III after cooling” value ([5]; allowed to cool to 63° C. at 60% RH) was “below 90 °C” and the “Temperature at which the crystalline form changed to anhydrous crystalline form” value ([5]; heated to 160° C. at 60% RH) was “over 145 °C”.

With `NCCONC(=O)[C@@H]1CC[C@@H]2CN1C(=O)N2OS(=O)(=O)O` [Crystalline form IV, (2S,5R)-N-(2-aminoethoxy)-7-oxo-6-(sulfooxy)-1,6-diazabicyclo[3.2.1]octane-2-carboxamide] the Content ([1]; 1 month) was 99.8%, the “Total amount of related substances” value ([1]; 1 month) was 0.0% and the Water content ([1]; 1 month) was 0.1%. For the same compound, the Content ([1]; 1 month, listed as Form IV) was 99.8%, the “Total amount of related substances” value ([1]; 1 month, listed as Form IV) was 0.0% and the Water content ([1]; 1 month, listed as Form IV) was 0.1%. The Content ([1]; at start) was 99.9%, the “Total amount of related substances” value ([1]; at start) was 0.0% and the Water content ([1]; at start) was 0.1%. For the same compound, the Content ([1]; at start, listed as Form IV) was 99.9%, the “Total amount of related substances” value ([1]; at start, listed as Form IV) was 0.0% and the Water content ([1]; at start, listed as Form IV) was 0.1%. The “Crystal transformation to a different crystal form” value ([4]; suspended in isopropanol/water (6/1), stirred at 25° C. or 40° C., 12 hours to one week) was “No crystal transformation to a different crystal form was observed”.

In the case of `NCCONC(=O)[C@@H]1CC[C@@H]2CN1C(=O)N2OS(=O)(=O)O` [Crystalline form I, (2S,5R)-N-(2-aminoethoxy)-7-oxo-6-(sulfooxy)-1,6-diazabicyclo[3.2.1]octane-2-carboxamide], the Content ([1]; 1 month) is reported as 99.9%, the “Total amount of related substances” value ([1]; 1 month) is reported as 0.0% and the Water content ([1]; 1 month) is reported as 5.4%. For the same compound, the Content ([1]; 1 month, listed as Form I) was 99.9%, the “Total amount of related substances” value ([1]; 1 month, listed as Form I) was 0.0% and the Water content ([1]; 1 month, listed as Form I) was 5.4%. The Content ([1]; 3 months) was 99.8%, the “Total amount of related substances” value ([1]; 3 months) was 0.1% and the Water content ([1]; 3 months) was 5.6%. For the same compound, the Content ([1]; 3 months, listed as Form I) was 99.8%, the “Total amount of related substances” value ([1]; 3 months, listed as Form I) was 0.1% and the Water content ([1]; 3 months, listed as Form I) was 5.6%. For the same compound, the Content ([1]; at start) was 99.9%, the “Total amount of related substances” value ([1]; at start) was 0.1% and the Water content ([1]; at start) was 5.4%. For the same compound, the Content ([1]; at start, listed as Form I) was 99.9%, the “Total amount of related substances” value ([1]; at start, listed as Form I) was 0.1% and the Water content ([1]; at start, listed as Form I) was 5.4%. The “Solubility in aqueous isopropanol, comparison of crystalline forms I, II and III” value [3] was “lowest solubility”, the “Solubility in an aqueous 60% isopropanol solution” value ([3]; 10° C.) was 0.44% and the “Solubility in an aqueous 60% isopropanol solution” value ([3]; 20° C.) was 0.48%.

In the case of `NCCONC(=O)[C@@H]1CC[C@@H]2CN1C(=O)N2OS(=O)(=O)O` [Amorphous form, (2S,5R)-N-(2-aminoethoxy)-7-oxo-6-(sulfooxy)-1,6-diazabicyclo[3.2.1]octane-2-carboxamide], the Content ([1]; 1 month) is reported as 93.3%, the “Total amount of related substances” value ([1]; 1 month) is reported as 6.6% and the Water content ([1]; 1 month) is reported as 3.3%. The Content ([1]; 3 months) was 87.5%, the “Total amount of related substances” value ([1]; 3 months) was 12.3% and the Water content ([1]; 3 months) was 3.8%. The Content ([1]; at start) was 99.4%, the “Total amount of related substances” value ([1]; at start) was 0.5% and the Water content ([1]; at start) was 1.3%.

For `NCCONC(=O)[C@@H]1CC[C@@H]2CN1C(=O)N2OS(=O)(=O)O` [Crystalline form II, (2S,5R)-N-(2-aminoethoxy)-7-oxo-6-(sulfooxy)-1,6-diazabicyclo[3.2.1]octane-2-carboxamide], the Content ([1]; 1 month) was 99.8%, the “Total amount of related substances” value ([1]; 1 month) was 0.0% and the Water content ([1]; 1 month) was 5.6%. For the same compound, the Content ([1]; 1 month, listed as Form II) was 99.8%, the “Total amount of related substances” value ([1]; 1 month, listed as Form II) was 0.0% and the Water content ([1]; 1 month, listed as Form II) was 5.6%. For the same compound, the Content ([1]; 3 months) was 99.3%, the “Total amount of related substances” value ([1]; 3 months) was 0.5% and the Water content ([1]; 3 months) was 5.9%. For the same compound, the Content ([1]; 3 months, listed as Form II) was 99.3%, the “Total amount of related substances” value ([1]; 3 months, listed as Form II) was 0.5% and the Water content ([1]; 3 months, listed as Form II) was 5.9%. The Content ([1]; at start) was 99.8%, the “Total amount of related substances” value ([1]; at start) was 0.1% and the Water content ([1]; at start) was 5.7%. For the same compound, the Content ([1]; at start, listed as Form II) was 99.8%, the “Total amount of related substances” value ([1]; at start, listed as Form II) was 0.1% and the Water content ([1]; at start, listed as Form II) was 5.7%. The “Solubility in an aqueous 60% isopropanol solution” value ([3]; 10° C.) was 0.67%, the “Solubility in an aqueous 60% isopropanol solution” value ([3]; 20° C.) was 0.74% and the “Crystal transformation to a different crystal form” value ([4]; suspension of the crystals stirred at room temperature for one day, powder X-ray diffraction) was “No crystal transformation to a different crystal form was observed”.
